Measurements published in US8609086B2, “Preparation created from an in vitro culture of dedifferentiated, non-elicited cells of the Argania tree, use thereof for treating skin ageing, inflammation and scarring, and production thereof” (Pierre Fabre Dermo-Cosmetique, priority 2010, dated 2013).

Experiment: Anti-oxidizing activity by chemiluminescence (ACL kit), trolox equivalent
Type: biochemical
Settings: anti-oxidizing power in trolox equivalent, trapping of superoxide anions
Text: This method generates free radicals (superoxide radical O2^o−) by a photochemical signal. The intensity of oxidation is 1000 times greater than that obtained under normal conditions. Detection is done by chemiluminescence and is used to evaluate lipo or hydrosoluble anti-oxidizing extracts or molecules. The results are expressed as an equivalent quantity of vitamin C or Trolox (6-Hydroxy-2,5,7,8-tetramethylchroman-2-carboxylic acid). The sensitivity is of the order of one nanomole.
The analysis of the results depends on two criteria, namely the shape of the curve (integration) and the numerical value given by the software in nanomoles. (Igor Popov and Gudrun Lewin. Methods in enzymology vol 300. 437-456; Maibach I Howard and coll. Journal of Cosmetic Dermatology Vol 7(2) 96-100 (2008)).
The results will be expressed in μg of sample necessary to obtain an activity equivalent to the activity detected for 1 μg of standard (=trolox). (ACL Kit).
The anti-oxidizing activity studied in this test represents the ability to specifically trap superoxide anions by chemiluminescence.

Compound	ACL μg of sample for 1 μg of Trolox
COC1=C(OC)C(=O)C(C/C=C(\C)CC/C=C(\C)CC/C=C(\C)CC/C=C(\C)CC/C=C(\C)CC/C=C(\C)CC/C=C(\C)CC/C=C(\C)CC/C=C(\C)CCC=C(C)C)=C(C)C1=O [Coenzyme 10]	272 μg of sample for 1 μg of Trolox
Cc1c(C)c2c(c(C)c1O)CCC(C)(C(=O)O)O2 (centres unmarked) [Trolox, 6-Hydroxy-2,5,7,8-tetramethylchroman-2-carboxylic acid]	1 μg of sample for 1 μg of Trolox
